# Where two headings read alike, the source gives them in different places.
# Tests used:
# Type in all cases: cell-based
# CNS SF-539 = test: COMPARE screening (NCI human cancer cell line screen), cytotoxicity GI50
# Experimental: (§1) Selected compounds were tested for antiproliferative activity in the National Cancer Institute's developmental therapeutics assay 60 cell line screen (NCI60). The cells were incubated with the tested compounds at 100, 10, 1, 0.1, and 0.01 μM concentrations for 48 h before treatment with sulforhodamine B dye. Optical densities were recorded, and their ratios relative to that of the control were plotted as percentage growth against the log 10 of the tested compound concentrations.
# melanoma UACC-62 = test: as above
# Experimental: as §1
# colon HCT-116 = test: as above
# Experimental: as §1
# ovarian OVCAR-3 = test: as above
# Experimental: as §1
# renal SN12C = test: as above
# Experimental: as §1
# prostate DU-145 = test: as above
# Experimental: as §1
# [1] = system: all human cancer cell lines successfully tested; test: NCI screen mean graph midpoint (MGM) for growth inhibition
# Experimental: COMPARE screening. The compounds described herein were examined for antiproliferative activity against the human cancer cell lines in the National Cancer Institute screen (COMPARE screening), in which the activity of each compound was evaluated with approximately 55 different cancer cell lines of diverse tumor origins. […] Therefore, the MGM value represents an overall assessment of toxicity of the compound across numerous cell lines.
# as §1
# The cytotoxicities of the compounds to cultured cancer cells were measured in the National Cancer Institute's 60 cell line assay (a.k.a. NCI-60).
# breast MDA-MB-435 = test: COMPARE screening (NCI human cancer cell line screen), cytotoxicity GI50
# lung HOP-62 = test: as above
# Experimental: as §1
# [2] = Homo sapiens, CNSSF-539, read-out: cytotoxicity (GI50) CNS SF-539
# [3] = Homo sapiens, UACC-62, read-out: cytotoxicity (GI50) melanoma UACC-62
# [4] = Homo sapiens, HCT-116, read-out: cytotoxicity (GI50) colon HCT-116
# [5] = Homo sapiens, OVCAR-3, read-out: cytotoxicity (GI50) ovarian OVCAR-3
# [6] = Homo sapiens, SN12C, read-out: cytotoxicity (GI50) renal SN12C
# [7] = Homo sapiens, DU-145, read-out: cytotoxicity (GI50) prostate DU-145
# [8] = Homo sapiens, MDA-MB-435, read-out: cytotoxicity (GI50) breast MDA-MB-435
# [9] = Table 1, average GI50 of all cell lines tested (approximately 55), test range 10^−8 to 10^−4 molar
# [10] = Homo sapiens, HOP-62, read-out: cytotoxicity (GI50) lung HOP-62
# [11] = all human cancer cell lines successfully tested
Compound,GI50 (melanoma UACC-62) [µM],GI50 (colon HCT-116) [µM],GI50 (ovarian OVCAR-3) [µM],GI50 (renal SN12C) [µM],GI50 (prostate DU-145) [µM],"MGM (mean GI50 across cell lines) [1, 9] [µM]",GI50 (breast MDA-MB-435) [µM],GI50 (lung HOP-62) [µM],other results
"COc1cc2c3c(oc(=O)c2cc1OC)-c1ccccc1C3=O [Compound 4a, 2,3-dimethoxybenz[d]indeno[1,2-b]pyran-5,11-dione]",–,–,–,–,–,–,–,–,GI50 (CNS SF-539; [2]): ≥ 100 µM; GI50 (melanoma UACC-62; [3]): ≥ 100 µM; GI50 (colon HCT-116; [4]): ≥ 100 µM; GI50 (ovarian OVCAR-3; [5]): ≥ 100 µM; GI50 (renal SN12C; [6]): ≥ 100 µM; GI50 (prostate DU-145; [7]): ≥ 100 µM; MGM (mean GI50 across cell lines) ([1]; Homo sapiens): ≥ 100 µM; GI50 (breast MDA-MB-435; [8]): ≥ 100 µM
COc1cc2c3c(n(CCCN(C)C)c(=O)c2cc1OC)-c1ccccc1C3=O [Compound 5a],6.61,2.45,5.89,11,4.47,6.17,7.08,–,GI50 (CNS SF-539): 6.17 µM
"CC(C)(C)OC(=O)NCCCCCCCn1c2c(c3ccccc3c1=O)C(=O)c1ccccc1-2 [Compound 5af, 6-(7′-tert-BOC-Aminoheptyl)-5,6-dihydro-5,11-dioxo-11H-indeno[1,2-c]isoquinoline]",20,17.4,33.9,74.1,31.6,30.9,81.3,–,GI50 (CNS SF-539): 20.9 µM
"CC(C)(C)OC(=O)NCCCCCCCCCn1c2c(c3ccccc3c1=O)C(=O)c1ccccc1-2 [Compound 5ah, 6-(9′-tert-BOC-Aminononyl)-5,6-dihydro-5,11-dioxo-11H-indeno[1,2-c]isoquinoline]",17.4,–,28.8,77.6,> 100,50.1,> 100,24.5,GI50 (CNS SF-539): 17.8 µM
"O=C1c2ccccc2-c2c1c1ccccc1c(=O)n2Cc1ccccn1 [Compound 5aw, 5,6-Dihydro-5,11-dioxo-6-(2-pyridylmethyl)-11H-indeno[1,2-c]isoquinoline]",–,–,–,–,–,15.1,–,–,GI50 (CNS SF-539; [2]): 12.3 µM; GI50 (melanoma UACC-62; [3]): 10.7 µM; GI50 (lung HOP-62; [10]): 11.2 µM; GI50 (ovarian OVCAR-3; [5]): 13.8 µM; GI50 (renal SN12C; [6]): 28.2 µM; GI50 (prostate DU-145; [7]): 13.5 µM; GI50 (breast MDA-MB-435; [8]): 3.09 µM
"Cl.O=C1c2ccccc2-c2c1c1ccccc1c(=O)n2CCc1ccccn1 [Compound 5ay, 5,6-Dihydro-5,11-dioxo-6-(2-pyridylethyl)-11H-indeno[1,2-c]isoquinoline Hydrochloride]",–,–,–,–,–,53.7,–,–,GI50 (CNS SF-539; [2]): 17.4 µM; GI50 (melanoma UACC-62; [3]): 27.5 µM; GI50 (lung HOP-62; [10]): 21.4 µM; GI50 (ovarian OVCAR-3; [5]): > 100 µM; GI50 (renal SN12C; [6]): 77.6 µM; GI50 (prostate DU-145; [7]): 74.1 µM; GI50 (breast MDA-MB-435; [8]): 5.13 µM
"O=C1c2ccccc2-c2c1c1ccc([N+](=O)[O-])cc1c(=O)n2CCCBr [Compound 5bb, 6-(3-Bromopropyl)-5,6-dihydro-5,11-dioxo-3-nitro-11H-indeno[1,2-c]isoquinoline]",–,–,–,–,–,40.0,–,–,GI50 (CNS SF-539; [2]): > 100 µM; GI50 (melanoma UACC-62; [3]): > 100 µM; GI50 (colon HCT-116; [4]): 3.47 µM; GI50 (ovarian OVCAR-3; [5]): > 100 µM; GI50 (renal SN12C; [6]): > 100 µM; GI50 (prostate DU-145; [7]): > 100 µM; GI50 (breast MDA-MB-435; [8]): > 100 µM
COc1ccc2c(c1)C(=O)c1c-2n(CCCI)c(=O)c2cc([N+](=O)[O-])ccc12 [Compound 5bd],0.148,0.046,3.02,0.309,0.034,–,1.48,–,"GI50 (CNS SF-539): 0.058 µM; MGM (mean graph midpoint for growth inhibition) [1, 9]: 0.328 ± 0.046 µM"
[N-]=[N+]=NCCCn1c2c(c3ccccc3c1=O)C(=O)c1ccccc1-2 [Compound 5bh],19.5,4.9,7.94,25.1,29.5,12.3,7.76,7.59,–
COc1ccc2c(c1)C(=O)c1c-2n(CCCN2CCOCC2)c(=O)c2cc([N+](=O)[O-])ccc12 [Compound 5bj],< 0.01,< 0.01,< 0.01,< 0.01,–,–,< 0.01,< 0.01,"MGM (mean graph midpoint for growth inhibition) [1, 9]: 0.014 ± 0.001 µM"
CN(C)CCCn1c2c(c3ccc([N+](=O)[O-])cc3c1=O)C(=O)c1ccccc1-2 [Compound 5c],7.08,6.46,25.7,4.17,–,9.77,> 100,–,–
CN(C)CCCn1c2c(c3ccccc3c1=O)C(=O)c1ccccc1-2 [Compound 5d],0.51,0.58,1.7,0.91,1.32,–,2.82,–,–
O=C1c2ccccc2-c2c1c1ccccc1c(=O)n2CCCn1ccnc1 [Compound 5g],0.79,1.41,1.66,1.66,1.41,1.86,–,–,GI50 (CNS SF-539): 2.34 µM
"O=C1c2ccccc2-c2c1c1ccc([N+](=O)[O-])cc1c(=O)n2CCN1CCOCC1 [Compound 5i, 5,6-Dihydro-6-(2-morpholin-4-yl-1-ethyl)-3-nitro-5,11-dioxo-11H-indeno[1,2-c]isoquinoline]",–,–,–,–,–,74.1,–,–,GI50 (melanoma UACC-62; [3]): 83.2 µM; GI50 (colon HCT-116; [4]): > 100 µM; GI50 (lung HOP-62; [10]): 52.5 µM; GI50 (ovarian OVCAR-3; [5]): > 100 µM; GI50 (renal SN12C; [6]): 58.9 µM; GI50 (prostate DU-145; [7]): 61.7 µM; GI50 (breast MDA-MB-435; [8]): > 100 µM
COc1cc2c3c(n(CCCn4ccnc4)c(=O)c2cc1OC)-c1cc2c(cc1C3=O)OCO2.Cl [Compound 5l],–,–,–,–,–,–,–,–,"MGM (mean graph midpoint for growth inhibition) [1, 9]: 0.079 ± 0.023 µM"
"CN(CCCn1c2c(c3ccccc3c1=O)C(=O)c1ccccc1-2)CCCn1c2c(c3ccccc3c1=O)C(=O)c1ccccc1-2 [Compound 12d, Bis{(5,6-dihydro-5,11-diketo-11H-indeno[1,2-c]isoquinoline)-6-propyl}methylamine]",–,–,–,–,–,–,–,–,"GI50 (CNS SF-539; CNS SF-539, concentration corresponding to 50% growth inhibition, read-out: cytotoxicity (GI50 in μM) CNS SF-539): 1.12 µM; GI50 (melanoma UACC-62; melanoma UACC-62, concentration corresponding to 50% growth inhibition, read-out: cytotoxicity (GI50 in μM) melanoma UACC-62): 2 µM; GI50 (ovarian OVCAR-3; ovarian OVCAR-3, concentration corresponding to 50% growth inhibition, read-out: cytotoxicity (GI50 in μM) ovarian OVCAR-3): 1.2 µM; GI50 (renal SN12C; renal SN12C, concentration corresponding to 50% growth inhibition, read-out: cytotoxicity (GI50 in μM) renal SN12C): 0.589 µM; MGM (mean graph midpoint for growth inhibition) [1, 11]: 0.934 ± 0.476 µM; GI50 (breast MDA-MB-435; breast MDA-MB-435, concentration corresponding to 50% growth inhibition, read-out: cytotoxicity (GI50 in μM) breast MDA-MB-435): 1.55 µM"
"Cl.O=C1c2ccccc2-c2c1c1ccccc1c(=O)n2CCCCNCCCn1c2c(c3ccccc3c1=O)C(=O)c1ccccc1-2 [Compound 14b, Bis{(5,6-dihydro-5,11-diketo-11H-indeno[1,2-c]isoquinoline)}-(6-propyl,6′-butyl)amine Hydrochloride]",0.513,0.056,0.372,0.132,0.288,–,0.562,0.028,"MGM (mean graph midpoint for growth inhibition) [1, 11]: 0.357 ± 0.087 µM"
"O=C(O)C(F)(F)F.O=C(O)C(F)(F)F.O=C1c2ccccc2-c2c1c1ccccc1c(=O)n2CCNCCNCCn1c2c(c3ccccc3c1=O)C(=O)c1ccccc1-2 [Compound 14c, Bis-1,2-{(5,6-dihydro-5,11-diketo-11H-indeno[1,2-c]isoquinoline)-6-ethylamino}ethane Bis(trifluoroacetate)]",0.331,0.029,1.66,0.178,0.182,–,1.66,0.032,"MGM (mean graph midpoint for growth inhibition) [1, 11]: 0.427 ± 0.01 µM"
"O=C(O)C(F)(F)F.O=C(O)C(F)(F)F.O=C1c2ccccc2-c2c1c1ccccc1c(=O)n2CCCNCCNCCCn1c2c(c3ccccc3c1=O)C(=O)c1ccccc1-2 [Compound 14e, Bis-1,2-{(5,6-dihydro-5,11-diketo-11H-indeno[1,2-c]isoquinoline)-6-propylamino}ethane Bis(trifluoroacetate)]",0.052,< 0.01,1.02,< 0.01,< 0.01,–,0.933,< 0.01,"MGM (mean graph midpoint for growth inhibition) [1, 11]: 0.152 ± 0.062 µM"
"COc1cc2c3c(n(CCCN(CCCN(CCCn4c5c(c6ccccc6c4=O)C(=O)c4ccccc4-5)C(=O)OC(C)(C)C)C(=O)OC(C)(C)C)c(=O)c2cc1OC)-c1cc2c(cc1C3=O)OCO2 [Compound 16a, 1,3-{6-(3-tert-Butyloxycarbonylamino-1-propyl)-5,6-dihydro-2,3-dimethoxy-8,9-methylenedioxy-5,11-dioxo-11H-indeno[1,2-c]isoquinoline}-{5′,6′-dihydro-6′-[(3′-tert-butyloxycarbonylamino)-1′-propyl]-5′,11′-dioxo-11′H-indeno[1,2-c]isoquinoline}propane]",> 100,> 100,–,> 100,–,–,> 100,> 100,"MGM (mean GI50 across cell lines) [1, 11]: 68.0 µM"

# — US9796753B2, “N-substituted indenoisoquinolines and syntheses thereof” (Purdue Research Foundation, priority 2005, dated 2017)
